Series [1] can be described thus: Disintegration rate of dishwashing detergent tablet vs. additive ingredient. It is filed as physicochemical. To be noted: additive in standard dishwashing detergent formulation; based on a tablet of 20 g; FIGURE. The text has this:
The FIGURE is a bar graph of Disintegration Rate (g/min) vs. Additive Ingredient present in a standard dishwashing detergent formulation.
The dishwashing disintegrant tablets of the invention herein have a disintegration rate of at least 40 g/min (based on a tablet of 20 g).

For series [2] the following is noted: grams of solid to form a saturated solution in 100 g of water at 20° C.; cited from earlier work.

Molecules are shown by their SMILES.

With `NC(N)=O` [Urea], the Disintegration rate entry in series [1] is “minimal”. Further, the “Water Solubility (g/100 g)” value in series [2] is more than 100 g/100 g.
